Data reported in JP2016199536A, “筋肉増強およびメタボリックシンドローム改善ならびにqol改善のための組成物” (NUTRITION ACT CO Ltd, priority 2015, dated 2016).

Tests used:
[1] = tested on: myoblasts (筋芽細胞); assay: Myoblast differentiation promotion test, count of beating myotubes (Example 3); format: cell-based; conditions: 1 μM, 10 days after cell seeding, cells from ICR mouse fetal thigh muscle
[2] = Plasma leptin concentration in high-fat-diet mice (Example 5); format: in vivo, mouse; conditions: 10 weeks, C57BL/6J male mice, 6-compartment cage, high-fat diet with oleanolic acid or oleuropein 50 mg/kg diet, or Oleavita 1000 mg/kg diet
[3] = Body fat reduction in high-fat-diet mice, epididymal fat weight (Example 4); format: in vivo, mouse; conditions: 10 weeks, C57BL/6J male mice, 6-compartment cage, high-fat diet with oleanolic acid or oleuropein 50 mg/kg diet, or Oleavita 1000 mg/kg diet
[4] = Plasma insulin concentration in high-fat-diet mice (Example 5); format: in vivo, mouse; conditions: 10 weeks, C57BL/6J male mice, 6-compartment cage, high-fat diet with oleanolic acid or oleuropein 50 mg/kg diet, or Oleavita 1000 mg/kg diet

Row | Structure (SMILES) | beating myotube cells compared with control [1] | plasma leptin concentration [2] | fat-reducing effect compared with high-fat diet group (HF) [3] | suppression of plasma insulin concentration [4]
1 | CC1(C)CC[C@]2(C(=O)O)CC[C@]3(C)C(=CC[C@@H]4[C@@]5(C)CC[C@H](O)C(C)(C)[C@@H]5CC[C@]43C)[C@@H]2C1 [オレアノール酸] | わずかに増加 | 高値 | 脂肪減少効果が見られなかった | 抑制効果がなかった
2 | C/C=C1/[C@H](O[C@@H]2O[C@H](CO)[C@@H](O)[C@H](O)[C@H]2O)OC=C(C(=O)OC)[C@H]1CC(=O)OCCc1ccc(O)c(O)c1 [オレウロペイン] | わずかに増加 | 高値 | 脂肪減少効果が見られなかった | 抑制効果がなかった
